This assay concerns the target Human recombinant PRMT5 in complex with human recombinant MEP50 (Homo sapiens (Human), UniProt O14744). The assay is described as follows: PRMT5/MEP50 AlphaLISA enzyme inhibitory assay. Type of assay: biochemical. The following applies: PRMT5/MEP50 25 nM, SAM 10 μM, Biotin-H4 peptide 30 nM. From the text:
Human recombinant PRMT5 in complex with human recombinant MEP50, co-expressed in an insect cell/baculovirus expression system was purchased from Reaction Biology (Malvern, Pa.). […] Anti-H4R3-Me AlphaLISA acceptor beads and Streptavidin labeled AlphaLISA donor beads were obtained from PerkinElmer (Waltham, Mass.). S-adenosylmethionine (SAM), Tween20, dimethylsulfoxide (DMSO), and Tris buffer were obtained from Sigma at the highest level of purity available.
General Procedure for PRMT5/MEP50 AlphaLISA Enzyme Inhibitory Assays: Assays were performed in the buffer consisting of 50 mM Tris, pH 8.5, 5 mM MgCl2, 50 mM NaCl with 0.01% Tween20 and 1 mM DTT added right before the assay. 2.5 μL of compound solution in the assay buffer with 4% DMSO and 5 μL of PRMT5/MRP50 complex/SAM mixture solution in the assay buffer which was pre-incubated for 30 minutes were added into a white low volume 384 well microtiter plate. This mixture solution was incubated for 15 minutes with gentle shaking at room temperature. Methyl transfer reaction was initiated by adding 2.5 μL of Biotin-H4 (1-21) peptide substrate solution in the assay buffer. Final concentrations of PRMT5/MEP50, SAM, Biotin-H4 peptide substrate, and DMSO were 25 nM, 10 μM, 30 nM, and 1%, respectively. The reaction was allowed to perform for 120 minutes in dark with gentle shaking at room temperature after which 5 μL of Anti-H4R3-Me AlphaLISA acceptor beads in detection buffer from the manufacturer was added into the reaction mixture followed by incubation for 60 minutes. 10 μL of Streptavidin labeled AlphaLISA donor beads in detection buffer was added into the mixture followed by 30 minute incubation. Final acceptor and donor beads concentrations were 10 μg/mL. Plates were read on an Envision multimode plate reader from PerkinElmer (Waltham Mass., USA) with an excitation wavelength of 680 nm and emission wavelength of 615 nm. IC50 values of inhibitors were obtained by fitting the fluorescence intensity vs inhibitor concentrations in a sigmoidal dose-response curve (variable slopes, four parameters) using Prism 7 (La Jolla, Calif.).
Human recombinant PRMT5 in complex with human recombinant MEP50, sequence (O14744 whole entry): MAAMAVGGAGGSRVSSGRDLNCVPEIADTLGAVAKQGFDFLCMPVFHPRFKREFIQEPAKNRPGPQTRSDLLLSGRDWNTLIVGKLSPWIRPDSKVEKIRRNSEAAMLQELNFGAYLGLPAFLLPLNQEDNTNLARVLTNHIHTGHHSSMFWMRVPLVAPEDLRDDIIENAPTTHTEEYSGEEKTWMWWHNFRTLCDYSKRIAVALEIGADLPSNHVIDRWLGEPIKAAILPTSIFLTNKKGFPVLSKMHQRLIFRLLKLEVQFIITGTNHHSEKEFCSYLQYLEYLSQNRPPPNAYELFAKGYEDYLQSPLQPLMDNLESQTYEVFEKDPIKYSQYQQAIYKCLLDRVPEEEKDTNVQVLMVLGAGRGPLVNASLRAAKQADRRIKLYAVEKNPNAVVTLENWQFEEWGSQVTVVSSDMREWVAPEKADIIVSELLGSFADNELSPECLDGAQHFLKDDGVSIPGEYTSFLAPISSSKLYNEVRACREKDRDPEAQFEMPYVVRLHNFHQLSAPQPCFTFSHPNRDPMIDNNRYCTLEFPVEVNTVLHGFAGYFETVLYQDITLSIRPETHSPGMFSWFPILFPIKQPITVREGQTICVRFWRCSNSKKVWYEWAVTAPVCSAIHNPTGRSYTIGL
Human recombinant PRMT5 in complex with human recombinant MEP50, sequence (Q9BQA1 whole entry partner): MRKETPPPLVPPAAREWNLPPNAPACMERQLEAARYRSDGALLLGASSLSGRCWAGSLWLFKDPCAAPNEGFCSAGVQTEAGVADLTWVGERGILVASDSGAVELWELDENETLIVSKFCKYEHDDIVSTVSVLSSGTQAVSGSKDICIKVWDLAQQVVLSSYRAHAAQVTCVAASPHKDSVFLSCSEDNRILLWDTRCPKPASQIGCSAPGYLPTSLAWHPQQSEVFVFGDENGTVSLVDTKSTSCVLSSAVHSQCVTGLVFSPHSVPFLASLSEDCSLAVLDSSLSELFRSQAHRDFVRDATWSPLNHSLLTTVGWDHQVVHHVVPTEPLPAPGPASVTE
`Cn1cc(Nc2cc3c(cc2Cl)CCN(CC(O)CN2CCc4ccccc4C2)C3=O)cn1` (stereo not shown) [Compound 26, 6-chloro-2-(3-(3,4-dihydroisoquinolin-2(1H)-yl)-2-hydroxypropyl)-7-((1-methyl-1H-pyrazol-4-yl)amino)-3,4-dihydroisoquinolin-1(2H)-one]: the IC50 was found to be 487 nM. Turning to `O=C1c2cc(Nc3ccnnc3)ccc2CCN1C[C@@H](O)CN1CCc2ccccc2C1` [Compound 28b, (S)-2-(3-(3,4-dihydroisoquinolin-2(1H)-yl)-2-hydroxypropyl)-7-(pyridazin-4-ylamino)-3,4-dihydroisoquinolin-1(2H)-one], the IC50 stood at 296 nM.

As to `CC(=O)N1C2CCC1CC(Nc1ccc3c(c1)C(=O)N(CC(O)CN1CCc4ccccc4C1)CCO3)C2` (stereo not shown) [Compound 55, 7-((8-acetyl-8-azabicyclo[3.2.1]octan-3-yl)amino)-4-(3-(3,4-dihydroisoquinolin-2(1H)-yl)-2-hydroxypropyl)-3,4-dihydrobenzo[f][1,4]oxazepin-5(2H)-one], the IC50 stood at 195 nM.

In the case of `Cn1cc(Nc2ccc3c(c2)C(=O)N(CC(O)CN2CCc4ccccc4C2)CC3)cn1` (stereo not shown) [Compound 12], the IC50 was found to be 29 nM. Take `CC(=O)N1CC2C(C1)C2Nc1ccc2c(c1)C(=O)N(CC(O)CN1CCc3ccccc3C1)CCO2` (stereo not shown) [Compound 56, 7-((3-acetyl-3-azabicyclo[3.1.0]hexan-6-yl)amino)-4-(3-(3,4-dihydroisoquinolin-2(1H)-yl)-2-hydroxypropyl)-3,4-dihydrobenzo[f][1,4]oxazepin-5(2H)-one]: the IC50 turned out to be 1100 nM. With `O=C1c2cc(Nc3ccnnc3)cnc2OCCN1CC(O)CN1CCc2ccccc2C1` (stereo not shown) [Compound 47, 4-(3-(3,4-dihydroisoquinolin-2(1H)-yl)-2-hydroxypropyl)-7-(pyridazin-4-ylamino)-3,4-dihydropyrido[3,2-f][1,4]oxazepin-5(2H)-one] the figure was 56.3 nM. `O=C1c2cc(NC3COC3)ccc2CCN1CC(O)CN1CCc2ccccc2C1` (stereo not shown) [Compound 1, 2-(3-(3,4-dihydroisoquinolin-2(1H)-yl)-2-hydroxypropyl)-7-(oxetan-3-ylamino)-3,4-dihydroisoquinolin-1(2H)-one]: the IC50 came out at 97 nM.

For the compound `Cn1cc(-c2ccc3c(c2)C(=O)N(C[C@@H](O)CN2CCc4ccccc4C2)CC3)cn1` [Compound 13, (S)-2-(3-(3,4-dihydroisoquinolin-2(1H)-yl)-2-hydroxypropyl)-7-(1-methyl-1H-pyrazol-4-yl)-3,4-dihydroisoquinolin-1(2H)-one], the IC50 worked out at 578 nM. With `O=C1c2cc(NC3COC3)cnc2CCN1CC(O)CN1CCc2ccccc2C1` (stereo not shown) [Compound 16, 6-(3-(3,4-dihydroisoquinolin-2(1H)-yl)-2-hydroxypropyl)-3-(oxetan-3-ylamino)-7,8-dihydro-1,6-naphthyridin-5(6H)-one] the figure was 447 nM.

Turning to `O=C1c2cc(-c3cncnc3)ccc2CCN1CC(O)CN1CCc2ccccc2C1` (stereo not shown) [Compound 14, 2-(3-(3,4-dihydroisoquinolin-2(1H)-yl)-2-hydroxypropyl)-7-(pyrimidin-5-yl)-3,4-dihydroisoquinolin-1(2H)-one], the IC50 is 158 nM. For `O=C1c2cc(Nc3ccnnc3)ccc2CCN1CC(O)CN1CCc2ccccc2C1` (stereo not shown) [Compound 28], the IC50 stood at 11.4 nM.

For the compound `CC(=O)N1CC(Nc2ccc3c(c2)C(=O)N(CC(O)CN2CCc4ccccc4C2)CC3)C1` (stereo not shown) [Compound 6, 7-((1-acetylazetidin-3-yl)amino)-2-(3-(3,4-dihydroisoquinolin-2(1H)-yl)-2-hydroxypropyl)-3,4-dihydroisoquinolin-1(2H)-one], the IC50 was 77 nM. Regarding `O=C1c2cc(Nc3ccnnc3)ccc2OCCN1C[C@@H](O)CN1CCc2ccccc2C1` [Compound 30b, (S)-4-(3-(3,4-dihydroisoquinolin-2(1H)-yl)-2-hydroxypropyl)-7-(pyridazin-4-ylamino)-3,4-dihydrobenzo[f][1,4]oxazepin-5(2H)-one], the IC50 was 36 nM. As for `CC(=O)N1CCC(Nc2ccc3c(c2)C(=O)N(C[C@@H](O)CN2CCc4ccccc4C2)C2CC3C2)CC1` [Compound 57b, (S)-8-((1-acetylpiperidin-4-yl)amino)-2-(3-(3,4-dihydroisoquinolin-2(1H)-yl)-2-hydroxypropyl)-2,3,4,5-tetrahydro-1H-3,5-methanobenzo[c]azepin-1-one], the IC50 was found to be 209 nM.

Consider `O=C1c2cc(Nc3ccncn3)ccc2OCCN1C[C@H](O)CN1CCc2ccccc2C1` [Compound 37, (R)-4-(3-(3,4-dihydroisoquinolin-2(1H)-yl)-2-hydroxypropyl)-7-(pyrimidin-4-ylamino)-3,4-dihydrobenzo[f][1,4]oxazepin-5(2H)-one], for which the IC50 was 9.9 nM.

`O=C1c2cc(Nc3cncnc3)ccc2OCCN1C[C@H](O)CN1CCc2ccccc2C1` [Compound 36, (R)-4-(3-(3,4-dihydroisoquinolin-2(1H)-yl)-2-hydroxypropyl)-7-(pyrimidin-5-ylamino)-3,4-dihydrobenzo[f][1,4]oxazepin-5(2H)-one]: the IC50 came to 10.3 nM. The figure for `Cn1ccc(Nc2ccc3c(c2)C(=O)N(CC(O)CN2CCc4ccccc4C2)CC3)cc1=O` (stereo not shown) [Compound 27, 2-(3-(3,4-dihydroisoquinolin-2(1H)-yl)-2-hydroxypropyl)-7-((1-methyl-2-oxo-1,2-dihydropyridin-4-yl)amino)-3,4-dihydroisoquinolin-1(2H)-one] is 21 nM. The figure for `O=C1c2nc(Nc3ccnnc3)ccc2OCCN1CC(O)CN1CCc2ccccc2C1` (stereo not shown) [Compound 49, 4-(3-(3,4-dihydroisoquinolin-2(1H)-yl)-2-hydroxypropyl)-7-(pyridazin-4-ylamino)-3,4-dihydropyrido[2,3-f][1,4]oxazepin-5(2H)-one] is 690 nM; for `Cn1ccc(Nc2ccc3c(c2)C(=O)N(CC(O)CN2CCc4ccccc4C2)CC3)n1` (stereo not shown) [Compound 23, 2-(3-(3,4-dihydroisoquinolin-2(1H)-yl)-2-hydroxypropyl)-7-((1-methyl-1H-pyrazol-3-yl)amino)-3,4-dihydroisoquinolin-1(2H)-one] it is 61 nM. On to `CN1CC(Nc2ccc3c(c2)C(=O)N(C[C@@H](O)CN2CCc4ccccc4C2)CC3)C1` [Compound 9, (S)-2-(3-(3,4-dihydroisoquinolin-2(1H)-yl)-2-hydroxypropyl)-7-((1-methylazetidin-3-yl)amino)-3,4-dihydroisoquinolin-1(2H)-one], for which the IC50 was determined as 2440 nM. Regarding `O=C1c2cc(Nc3ccnnc3)cc(F)c2OCCN1CC(O)CN1CCc2ccccc2C1` (stereo not shown) [Compound 51, 4-(3-(3,4-dihydroisoquinolin-2(1H)-yl)-2-hydroxypropyl)-9-fluoro-7-(pyridazin-4-ylamino)-3,4-dihydrobenzo[f][1,4]oxazepin-5(2H)-one], the IC50 is 6.5 nM. With `Cn1cc(Nc2ccc3c(c2)C(=O)N(CC(O)CN2CCc4ccccc4C2)CCO3)cn1` (stereo not shown) [Compound 29] the figure was 39 nM; with `Cn1cc(Nc2cnc3c(c2)C(=O)N(CC(O)CN2CCc4ccccc4C2)CC3)cn1` (stereo not shown) [Compound 20, 6-(3-(3,4-dihydroisoquinolin-2(1H)-yl)-2-hydroxypropyl)-3-((1-methyl-1H-pyrazol-4-yl)amino)-7,8-dihydro-1,6-naphthyridin-5(6H)-one], 132 nM; with `O=c1c2cc(NC3COC3)ccc2ncn1CC(O)CN1CCc2ccccc2C1` (stereo not shown) [Compound 3, 3-(3-(3,4-dihydroisoquinolin-2(1H)-yl)-2-hydroxypropyl)-6-(oxetan-3-ylamino)quinazolin-4(3H)-one], 568 nM. For `CC(=O)N1CC2(CC(Nc3ccc4c(c3)C(=O)N(CC(O)CN3CCc5ccccc5C3)CCO4)C2)C1` (stereo not shown) [Compound 54, 7-((2-acetyl-2-azaspiro[3.3]heptan-6-yl)amino)-4-(3-(3,4-dihydroisoquinolin-2(1H)-yl)-2-hydroxypropyl)-3,4-dihydrobenzo[f][1,4]oxazepin-5(2H)-one], the IC50 is 138 nM. On to `CS(=O)(=O)N1CC(Nc2ccc3c(c2)C(=O)N(C[C@@H](O)CN2CCc4ccccc4C2)CC3)C1` [Compound 8, (S)-2-(3-(3,4-dihydroisoquinolin-2(1H)-yl)-2-hydroxypropyl)-7-((1-(methylsulfonyl)azetidin-3-yl)amino)-3,4-dihydroisoquinolin-1(2H)-one], for which the IC50 was determined as 232 nM. As to `Cn1nccc1Nc1ccc2c(c1)C(=O)N(C[C@H](O)CN1CCc3ccccc3C1)CCO2` [Compound 41, (R)-4-(3-(3,4-dihydroisoquinolin-2(1H)-yl)-2-hydroxypropyl)-7-((1-methyl-1H-pyrazol-5-yl)amino)-3,4-dihydrobenzo[f][1,4]oxazepin-5(2H)-one], the IC50 came out at 9.9 nM. Regarding `O=C1c2cc(N[C@H]3CCOC3)ccc2CCN1C[C@@H](O)CN1CCc2ccccc2C1` [Compound 10, 2-((S)-3-(3,4-dihydroisoquinolin-2(1H)-yl)-2-hydroxypropyl)-7-(((S)-tetrahydrofuran-3-yl)amino)-3,4-dihydroisoquinolin-1(2H)-one], the IC50 came out at 1010 nM.

The record behind these values is US11591326B2, “Inhibitors of protein arginine methyltransferase 5 (PRMT5), pharmaceutical products thereof, and methods thereof” (PHARMABLOCK SCIENCES (NANJING), INC., priority 2018, dated 2023).
